{
  "source": "patent US12539307B2",
  "about": "“Oral cannabinoid formulation comprising tocopheryl phosphates and long chain triglycerides or long chain fatty acids” (AVECHO BIOTECHNOLOGY LIMITED, priority 2020, dated 2026)",
  "key": {"[1]": {"experiment": "In vivo bioavailability (pk study) after a single oral gavage", "parameters": "species or system Sprague-Dawley rats", "conditions": "rats", "protocol": "Male Sprague-Dawley rats (301-353 g at the time of the study) are acclimatized for a minimum of seven days on standard feed with free access to water. The rats are housed under controlled environmental parameters (temperature: 22.1° C., relative humidity: 57%), and with reversed light cycle (12 h/12 h).\nThe formulations are administered to each rat by oral gavage with a polyurethane feeding tube (Instech Laboratories Inc., Plymouth Meeting, USA). Blood samples (200 μL) are collected from the tail vein before dosing and at 0, 0.5, 1, 2, 4, 6, and 8 h after dosing. After the 6 h blood sample, the rats were given access to standard feed. At 23 h, the rats are euthanized by gassing and a blood sample is withdrawn from the heart immediately after. All blood samples were collected in ethylenediaminetetraacetic acid (EDTA) tripotassium salt dihydrate coated tubes (Sarstedt, Helsingborg, Sweden), and centrifuged at 10,000 RPM for 10 min. After centrifugation, the plasma was transferred to polypropylene microtubes and stored at −20° C. until LC-MS analysis."}, "[2]": {"experiment": "In vitro intestinal digestion of carrier oil in fasted media (pH 6.5): solubilisation of CBD", "format": "in vitro ADME", "conditions": "with TPM", "protocol": "FIG. 1—Solubilisation of CBD during in vitro intestinal digestion of carrier oil (MCT, LCT/LCFA, or a mixture of MCT:LCT/LCFA) in fasted media (pH 6.5). Total lipid was 110 mg (100 mg carrier oil+10 mg CBD). Data are mean±SD, n=3. A. CBD concentration (mg) during digestion in MCT. B. CBD concentration (mg) during digestion in LCT/LCFA (Maisine CC). C. CBD concentration (mg) during digestion in a mixture of MCT:LCT/LCFA (Maisine CC)\nFIG. 2—Solubilisation of CBD in the presence of TPM during in vitro gastro-intestinal digestion of carrier oil (MCT, LCT/LCFA, or a mixture of MCT:LCT/LCFA) in fasted media. Total lipid was 110 mg (80-90 mg carrier oil+10 mg CBD+10-20 mg TPM). Data are mean±SD, n=3. A. CBD concentration (mg) during digestion in MCT with TPM. B. CBD concentration (mg) during digestion in LCT/LCFA (Maisine CC) with TPM. C. CBD concentration (mg) during digestion in a mixture of MCT:LCT/LCFA (Maisine CC) with TPM.\nFIG. 3—Solubilisation of CBD in the presence of TPM during in vitro digestion of carrier oil (MCT, LCT/LCFA, or a mixture of MCT:LCT/LCFA) in fasted media (pH 6.5). Total lipid was 110 mg (80-90 mg carrier oil+10 mg CBD+10-20 mg TPM). Data are mean±SD, n=3. A. CBD concentration (mg) during digestion in 3:1 MCT:LCT/LCFA, with TPM. B. CBD concentration (mg) during digestion in 1:1 MCT:LCT/LCFA, with TPM. C. CBD concentration (mg) during digestion in 1:3 MCT:LCT/LCFA, with TPM.\nIn vitro digestion experiments were carried out to determine whether TPM in various carrier oils could increase the intestinal aqueous solubility of CBD. These experiments utilised a model of digestion in an intestinal environment at a pH of about 6.5. From the model, one can make determinations regarding the likely solubility of CBD or other cannabinoids such as THC in an aqueous intestinal fluid."}, "[3]": {"experiment": "In-vitro rat lipolysis: simulated rat gastric (0-30 min) and intestinal (30-90 min) digestion", "format": "in vitro ADME", "protocol": "FIG. 4. CBD solubility in-vitro in simulated gastric (0-30 min) and intestinal (30-90 min) conditions. Group 1: MCT. Group 2: 50 mg/ml TPM in MCT. Group 3: 100 mg/ml TPM in MCT. Group 4: 100 mg/ml TPM in 1:1 MCT/Maisine CC. Group 5: 200 mg/ml TPM in 1:1 MCT/Maisine CC.\nFurther in-vitro lipolysis experiments were conducted to investigate CBD dispersibility and solubility in a model of the gastric and intestinal spaces. The effect of TPM and the formulation vehicle was assessed by comparison to CBD dissolved in an MCT vehicle at 100 mg/ml. A rat gastric-intestinal model was selected in order to have best correlation with a subsequent in-vivo pk study in rats.\nThe in vitro lipolysis experiment simulated rat gastrointestinal conditions. The dispersion study was done in a lipolysis vessel containing simulated rat gastric medium at pH 2.4 and the gastric digestion of the formulations was assessed during 30 min. Afterwards, a concentrated bile buffer together with pancreatin was added to the gastric medium leading to the final concentrations which simulated the rat intestinal conditions. Subsequently, lipid digestion and drug solubilization was evaluated for 60 min."}},
  "data": [
    {"smiles": "C=C(C)[C@@H]1CCC(C)=C[C@H]1c1c(O)cc(CCCCC)cc1O", "note": "[CBD, cannabidiol]", "values": [
      {"measurement": "increase of mean Cmax relative to control CBD formulation in MCT alone", "setting": "[1]; addition of 50 mg/ml TPM to MCT carrier", "value": "~5", "unit": "×"},
      {"measurement": "increase of mean Cmax relative to control CBD formulation in MCT alone", "setting": "[1]; addition of 100 mg/ml TPM to MCT carrier", "value": "~14", "unit": "times"},
      {"measurement": "increase of mean Cmax relative to control CBD formulation in MCT alone", "setting": "[1]; addition of 100 mg/ml TPM to MCT:LCT/LCFA carrier", "value": "~30", "unit": "×"},
      {"measurement": "increase of mean Cmax relative to control CBD formulation in MCT alone", "setting": "[1]; addition of 200 mg/ml TPM to MCT:LCT/LCFA carrier", "value": "~40", "unit": "times"},
      {"measurement": "aqueous CBD solubility during digestion, by MCT:LCT/LCFA ratio", "setting": "[2]; vehicle 1:1 MCT:LCT/LCFA", "value": "best increase"},
      {"measurement": "aqueous CBD solubility during digestion, by MCT:LCT/LCFA ratio", "setting": "[2]; vehicle 1:3 MCT:LCT/LCFA, also significant CBD in immiscible oil phase", "value": "slight increase"},
      {"measurement": "aqueous CBD solubility during digestion, by MCT:LCT/LCFA ratio", "setting": "[2]; vehicle 3:1 MCT:LCT/LCFA", "value": "CBD precipitation"},
      {"measurement": "dispersibility and solubility of CBD in simulated gastric and intestinal spaces", "setting": "[3]; addition of TPM to MCT containing CBD (100 mg/ml)", "value": "increased"},
      {"measurement": "dispersibility and solubility of CBD in the intestinal space", "setting": "[3]; addition of TPM to MCT:LCT/LCFA vehicles containing CBD (100 mg/ml)", "value": "increased"}
    ]}
  ]
}
